Data as given in publication PMC11219871, “Epigenetic-based differentiation therapy for Acute Myeloid Leukemia” (Nature Communications, 2024).
Several values for one entry are separate records, joined by “and”; a condition that tells them apart may be missing. Equal values may be shown once. Read-outs that look alike come from different tables or passages of the source. Values belong to the compound of their own block, whether it stands above or below them.

Key:
[1] = molecular target: T1, HDAC6 (Homo sapiens, UniProt Q9UBN7); assay: HDAC enzymatic assay, fluorescence-labeled substrate; assay type: biochemical; conditions: read-out: HDAC6 IC50
T1 sequence (Q9UBN7 1-1215): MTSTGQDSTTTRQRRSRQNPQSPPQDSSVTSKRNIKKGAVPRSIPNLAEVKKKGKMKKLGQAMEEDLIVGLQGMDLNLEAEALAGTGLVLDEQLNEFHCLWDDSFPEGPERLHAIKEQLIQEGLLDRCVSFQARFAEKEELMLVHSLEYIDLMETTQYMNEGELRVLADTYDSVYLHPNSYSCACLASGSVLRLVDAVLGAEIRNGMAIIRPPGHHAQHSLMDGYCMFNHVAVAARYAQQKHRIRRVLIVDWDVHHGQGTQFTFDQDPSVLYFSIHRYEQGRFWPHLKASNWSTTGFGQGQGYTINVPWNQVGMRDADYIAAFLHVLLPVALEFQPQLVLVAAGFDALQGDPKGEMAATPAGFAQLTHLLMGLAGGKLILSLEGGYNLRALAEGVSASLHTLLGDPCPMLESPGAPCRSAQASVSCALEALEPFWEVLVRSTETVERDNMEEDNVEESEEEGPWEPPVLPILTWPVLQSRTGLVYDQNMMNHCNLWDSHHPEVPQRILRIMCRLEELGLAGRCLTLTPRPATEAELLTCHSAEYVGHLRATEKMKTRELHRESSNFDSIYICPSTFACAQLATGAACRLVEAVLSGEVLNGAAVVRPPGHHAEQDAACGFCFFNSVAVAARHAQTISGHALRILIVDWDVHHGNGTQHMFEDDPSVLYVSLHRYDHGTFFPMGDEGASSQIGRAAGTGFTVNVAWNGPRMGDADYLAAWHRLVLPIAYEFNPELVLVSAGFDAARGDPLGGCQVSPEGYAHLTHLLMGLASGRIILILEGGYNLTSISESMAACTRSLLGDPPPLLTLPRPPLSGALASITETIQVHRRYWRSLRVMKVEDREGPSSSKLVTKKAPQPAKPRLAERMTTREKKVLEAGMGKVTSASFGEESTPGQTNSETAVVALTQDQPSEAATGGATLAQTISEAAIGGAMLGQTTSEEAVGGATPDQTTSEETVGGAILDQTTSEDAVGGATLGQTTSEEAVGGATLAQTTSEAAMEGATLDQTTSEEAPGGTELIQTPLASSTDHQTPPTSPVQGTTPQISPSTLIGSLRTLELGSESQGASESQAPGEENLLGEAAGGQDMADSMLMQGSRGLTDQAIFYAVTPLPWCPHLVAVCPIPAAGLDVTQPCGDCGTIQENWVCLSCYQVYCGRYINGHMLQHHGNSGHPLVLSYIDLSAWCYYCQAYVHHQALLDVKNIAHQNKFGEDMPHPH

[2] = molecular target: HDAC1 (Homo sapiens, UniProt Q13547); assay: as above; assay type: biochemical; conditions: read-out: HDAC1 IC50
HDAC1, sequence (Q13547 whole entry): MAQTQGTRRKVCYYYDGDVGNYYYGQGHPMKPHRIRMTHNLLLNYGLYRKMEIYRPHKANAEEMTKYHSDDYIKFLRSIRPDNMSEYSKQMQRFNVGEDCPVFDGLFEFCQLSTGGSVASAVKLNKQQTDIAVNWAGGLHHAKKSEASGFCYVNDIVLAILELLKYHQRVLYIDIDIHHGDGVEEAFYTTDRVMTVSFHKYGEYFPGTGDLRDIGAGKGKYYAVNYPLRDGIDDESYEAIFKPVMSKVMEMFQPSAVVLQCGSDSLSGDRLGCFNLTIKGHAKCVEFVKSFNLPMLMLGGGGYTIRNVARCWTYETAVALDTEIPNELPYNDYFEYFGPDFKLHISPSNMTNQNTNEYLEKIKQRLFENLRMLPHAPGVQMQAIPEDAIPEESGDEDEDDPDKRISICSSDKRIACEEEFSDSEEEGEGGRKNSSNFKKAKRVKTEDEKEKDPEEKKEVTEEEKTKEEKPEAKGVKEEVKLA

[3] = test system: HL-60; assay: Differentiation-apoptosis assay, CD11b / annexin-V / Sytox Green / myeloid markers flow cytometry; assay type: cell-based, human; parameters: CD11b levels: unit not given here; conditions: for Annexin V (%) Replicate 1 / Annexin V (%) Replicate 2 / Annexin V (%) Replicate 3 / CD11b (%) Replicate 1 / CD11b (%) Replicate 2 / CD11b (%) Replicate 3 / Annexin V + (%) / CD11b+ (%): HL-60, daily 25% GI50, 48 h; for Annexin V + (%) / CD11b+ (%): mean of three
Protocol: Next, the cells were washed twice with phosphate-buffered saline (PBS) and resuspended in 1X Binding Buffer at a concentration of 1 × 10^6 cells/mL. […] Finally, after the addition of 400 µL of 1X Binding Buffer to each tube, samples were collected on a BD FACSCanto flow cytometer (Becton Dickinson, San Jose, CA, USA) and analyzed using FlowJo software.
Then, 1 million cells (volume of 250 µL) were added and incubated for 30 min at room temperature in darkness. After 10 min incubation at room temperature with 2 mL of FACSLysing 1X, cells were centrifuged at 540 g for 5 min and washed twice with FACSBuffer. Finally, after centrifugation at 540 g for 5 min cells were resuspended in FACSBuffer.

[4] = test system: HL-60; assay: Cell proliferation assay: GI50; assay type: cell-based, human
Protocol: (§1) Cell proliferation was analyzed using the CellTiter 96 Aqueous One Solution Cell Proliferation Assay (Promega, Madison, WI). This is a colorimetric method for determining the number of viable cells in proliferation. For the assay, suspension cells were cultured in triplicate at a density of 1 × 10^6 cells/mL in 96-well plates (100.000 cells/well, 100 µL/well), using only the 60 inner wells to avoid any border effects. […] Then, the cells were incubated with 100 μL/well of medium and 20 μL/well of CellTiter 96 Aqueous One Solution reagent for 1–3 h. […] The background absorbance was measured in wells with only cell line medium and solution reagent. First, the average of the absorbance from the control wells was subtracted from all other absorbance values. Data were calculated as the percentage of total absorbance of treated cells/absorbance of non-treated cells. The GI50 values of the different compounds were determined using non-linear regression plots made with GraphPad Prism v5 software.

[5] = test system: MOLM-13; assay: Differentiation-apoptosis assay, CD11b / annexin-V / Sytox Green / myeloid markers flow cytometry; assay type: cell-based, human; parameters: CD11b levels: unit not given here; conditions: MOLM-13, daily treatment for 48 h, replicates 1-3 (Suppl. Fig. 9A)
Protocol: (§2) Next, the cells were washed twice with phosphate-buffered saline (PBS) and resuspended in 1X Binding Buffer at a concentration of 1 × 10^6 cells/mL. An 8-µL aliquot of APC-CD11b (BD Pharmingen, Franklin Lakes, NJ, USA) and 1 µL of FITC annexin-V (AV) (BD Pharmingen, Franklin Lakes, NJ, USA) antibodies were added and incubated for 15 min at room temperature in the dark. Finally, after the addition of 400 µL of 1X Binding Buffer to each tube, samples were collected on a BD FACSCanto flow cytometer (Becton Dickinson, San Jose, CA, USA) and analyzed using FlowJo software.
(§3) For the rest of experiments, the mix of antibodies (2 µL of BV786-CD13, Cat No, 744748 BD; 1 µL of diluted 1:10 antibody of PB-HLADR, Cat No 307633, Biolegend; 5 µL of APCH7-CD14, Cat No 641394, BD) was added to 10 µL of Brilliant Stain Buffer Plus (Becton Dickinson, San Jose, CA, USA). Then, 1 million cells (volume of 250 µL) were added and incubated for 30 min at room temperature in darkness. After 10 min incubation at room temperature with 2 mL of FACSLysing 1X, cells were centrifuged at 540 g for 5 min and washed twice with FACSBuffer. Finally, after centrifugation at 540 g for 5 min cells were resuspended in FACSBuffer.

[6] = test system: MV4-11; assay: as above; assay type: cell-based, human; parameters: CD11b levels: unit not given here; conditions: MV4-11, daily treatment for 48 h, replicates 1-3 (Suppl. Fig. 9A)
Protocol: as §2, §3

[7] = test system: ML-2; assay: as above; assay type: cell-based, human; parameters: CD11b levels: unit not given here; conditions: ML-2 treated daily for 48 h; replicates (Fig 6E)
Protocol: as §2, §3

[8] = test system: ML-2; assay: Cell proliferation assay: GI50; assay type: cell-based, human
Protocol: as §1

[9] = test system: MOLM-13; assay: Cell proliferation assay: GI50; assay type: cell-based, human
Protocol: as §1

[10] = test system: MV4-11; assay: Cell proliferation assay: GI50; assay type: cell-based, human
Protocol: as §1

[11] = test system: HL-60; assay: q-RT-PCR of MYC, CDKN2A, CDKN1A, GATA2, TAL1, CEBPA, SPI1; assay type: cell-based, human; conditions: HL-60 treated daily for 48 h; replicates (Fig 6F)
Protocol: (§4) RNA was extracted with TRIzol Reagent (Invitrogen) according to the manufacturer’s instructions. First, cDNA was synthesized from 1 µg of total RNA using the PrimeScript RT reagent Kit (Perfect Real Time) (Cat No RR037A, TaKaRa) following the manufacturer’s instructions. The quality of cDNA was checked by a multiplex PCR that amplifies PBGD, ABL, BCR and β2-MG genes. […] The following program conditions were used for the q-PCR: 50 °C for 2 min, 95 °C for 60 s following by 45 cycles at 95 °C for 15 s and 60 °C for 60 s; melting program, one cycle at 95 °C for 15 s, 40 °C for 60 s, and 95 °C for 15 s. The relative expression of each gene was quantified by the […] method using the gene GUS as an endogenous control. The sequence of primers used can be found in Supplementary Table 10.

[12] = test system: ML-2; assay: as above; assay type: cell-based, human; conditions: ML-2 treated daily for 48 h; replicates (Fig 6G)
Protocol: as §4

[13] = test system: MOLM-13; assay: as above; assay type: cell-based, human; conditions: MOLM-13, daily treatment for 48 h, replicates 1-3
Protocol: as §4

[14] = test system: MV4-11; assay: as above; assay type: cell-based, human; conditions: MV4-11, daily treatment for 48 h, replicates 1-3
Protocol: as §4

IC50 [1]: > 20 µM
IC50 [2]: > 20 µM
GI50 ([4]; 48 h, read-out: HL-60 GI50): 2.9 µM
Structure (SMILES): COc1cc2c(NC3CCN(C)CC3)cc(-c3ccc(C)o3)nc2cc1OCCCN1CCCC1 [CM-272]
Annexin V (%) Replicate 1 [3]: 1.02%
Annexin V (%) Replicate 2 [3]: 1.64%
Annexin V (%) Replicate 3 [3]: 1.88%
CD11b (%) Replicate 1 [3]: 1.50%
CD11b (%) Replicate 2 [3]: 0.87%
CD11b (%) Replicate 3 [3]: 0.44%
Annexin V + (%) [3]: 1.51%
CD11b+ (%) [3]: 0.94%

IC50 [1]: > 20 µM
IC50 [2]: > 20 µM
GI50 ([4]; 48 h, read-out: HL-60 GI50): > 10 µM
Structure (SMILES): COc1cc2c(NCC3CCN(C)CC3)cc(-c3ccc(C)o3)nc2cc1OCCCN1CCCC1 [CM-579]
Annexin V (%) Replicate 1 [3]: 0.00%
Annexin V (%) Replicate 2 [3]: 0.00%
Annexin V (%) Replicate 3 [3]: 0.00%
CD11b (%) Replicate 1 [3]: 0.00%
CD11b (%) Replicate 2 [3]: 0.00%
CD11b (%) Replicate 3 [3]: 0.00%
Annexin V + (%) [3]: 0.00%
CD11b+ (%) [3]: 0.00%

Structure (SMILES): Cc1sc2c(c1C)C(c1ccc(Cl)cc1)=N[C@@H](CC(=O)OC(C)(C)C)c1nnc(C)n1-2 [JQ1, reference compound]
CD11b levels [5]: 22.1 and 20.7 and 18.1
CD11b levels [6]: 12.1 and 10.6 and 16.7
CD11b levels [7]: 12.1 and 9.5 and 15.4
CD11b levels ([3]; HL-60 treated daily for 48 h, replicates (Fig 6D)): 14.4 and 10.4 and 18.9
GI50 ([4]; HL-60, 48 h, read-out: GI50): > 10 µM
GI50 ([4]; HL-60, replicates 1-3, µM for the other inhibitors, read-out: GI50): > 10 µM
GI50 ([8]; ML-2, 48 h): > 10 µM
GI50 ([8]; ML-2, replicates 1-3, µM for the other inhibitors): > 10 µM
GI50 ([9]; MOLM-13, 48 h): > 10 µM
GI50 ([9]; MOLM-13, replicates 1-3, µM for the other inhibitors): > 10 µM
GI50 ([10]; MV4-11, 48 h): > 10 µM
GI50 ([10]; MV4-11, replicates 1-3, µM for the other inhibitors): > 10 µM
q-PCR of CEBPA [11]: -0.3248 log10 (2-ΔΔCt) and -0.277 log10 (2-ΔΔCt) and -0.3773 log10 (2-ΔΔCt)
q-PCR of GATA2 [11]: -0.4169 log10 (2-ΔΔCt) and -0.4604 log10 (2-ΔΔCt) and -0.5063 log10 (2-ΔΔCt)
q-PCR of MYC [11]: -1.0533 log10 (2-ΔΔCt) and -1.072 log10 (2-ΔΔCt) and -1.203 log10 (2-ΔΔCt)
q-PCR of SPI1 [11]: 0.1686 log10 (2-ΔΔCt) and 0.1558 log10 (2-ΔΔCt) and 0.1908 log10 (2-ΔΔCt)
q-PCR of TAL1 [11]: 0.3073 log10 (2-ΔΔCt)
q-PCR of CEBPA [12]: 0.003145 log10 (2-ΔΔCt) and -0.05186 log10 (2-ΔΔCt) and 0.00217 log10 (2-ΔΔCt)
q-PCR of GATA2 [12]: -0.7948 log10 (2-ΔΔCt) and -0.4733 log10 (2-ΔΔCt) and -0.5146 log10 (2-ΔΔCt)
q-PCR of MYC [12]: -1.0744 log10 (2-ΔΔCt) and -1.048 log10 (2-ΔΔCt) and -1.0236 log10 (2-ΔΔCt)
q-PCR of SPI1 [12]: -0.3978 log10 (2-ΔΔCt) and -0.4936 log10 (2-ΔΔCt) and -0.3253 log10 (2-ΔΔCt)
q-PCR of TAL1 [12]: -0.9571 log10 (2-ΔΔCt) and -0.8702 log10 (2-ΔΔCt) and -0.7161 log10 (2-ΔΔCt)
q-PCR of CEBPA, log10 (2-ΔΔCt) [13]: -0.258 and -0.1482 and -0.3669
q-PCR of GATA2, log10 (2-ΔΔCt) [13]: -0.2598 and -0.4259 and -0.3898
q-PCR of MYC, log10 (2-ΔΔCt) [13]: -0.7137 and -0.6985 and -0.8216
q-PCR of SPI1, log10 (2-ΔΔCt) [13]: -0.9325 and -0.8224 and -0.9326
q-PCR of TAL1, log10 (2-ΔΔCt) [13]: -0.4726 and -0.5813 and -0.6816
q-PCR of CEBPA, log10 (2-ΔΔCt) [14]: 0.0684 and 0.023 and -0.05782
q-PCR of GATA2, log10 (2-ΔΔCt) [14]: -0.3858 and -0.3755 and -0.4115
q-PCR of MYC, log10 (2-ΔΔCt) [14]: -0.6192 and -0.5693 and -0.4576
q-PCR of SPI1, log10 (2-ΔΔCt) [14]: -0.1789 and -0.2041 and -0.25
q-PCR of TAL1, log10 (2-ΔΔCt) [14]: -1.126 and -0.6585 and -1.208
